Measurements: paper PMC8742467, “Therapeutical interference with the epigenetic landscape of germ cell tumors: a comparative drug study and new mechanistical insights” (Clinical Epigenetics, 2022)

Tests used:
[1] = system: histone modifications in 2102EP cells; test: Mass spectrometry analysis of histone modifications (Mod Spec); type: cell-based, Human
Description: 2102EP cells were treated with the EC50 concentrations for Quisinostat, JIB-04, Chaetocin, MZ-1, LP99, PRT4165, GSK343 and DMSO as solvent control. The cells were harvested via trypsinization after 16 h. The mass spectrometric analysis of histone modifications was outsourced to the Mod Spec service by Active Motif (Carlsbad, CA, USA). Histone extraction and mass spectrometric analysis was performed as described previously. Raw data were transformed into z-scores as the input. The heatmap was generated in R using ‘pheatmap’ with default settings and provided by Active Motif.

[2] = system: phosphorylated kinase targets in 2102EP cells; test: Proteome Profiler Human Phospho-Kinase Array; type: cell-based; settings: 16 h
Description: For the detection of phosphorylated kinase targets, the Proteome Profiler Human Phospho-Kinase Array Kit (R&D Systems, Abingdon, UK) was used according to the manufacturer’s instructions. The ChemiDoc Imaging System (Bio-Rad Laboratories, Feldkirchen, Germany) was used for detection. 2102EP cells were harvested after 16 h of treatment with the epi-drugs. Pixel density was analyzed using Fiji ImageJ 1.53c.

GCT cell lines = test: XTT cell viability assay, GCT cell lines (pre-screen / summary); type: cell-based, Human; settings: first pre-screen, SE and EC proxies TCam-2 and 2102EP, XTT
Description: The […] (XTT) assays were performed as described previously. In summary, for GCT and fibroblast cell lines 5 × 10^3 cells (3 × 10^3 for UC, PCa and RCC cell lines) per 96-well were seeded and different drug concentrations (see Additional file 2: Fig. S2, Additional file 3: Fig. S3) or corresponding solvents were added to the cells the following day. For drug details see Additional file 12: Table S2 C. Each condition was analyzed in four technical replicates and EC50 values were calculated by GraphPad Prism v8.

fibroblast control cells = test: Flow cytometry apoptosis (Annexin V/PI), fibroblasts; type: cell-based, Human; settings: EC50, 16 h
Description: For Annexin V/PI staining, cells were washed with Annexin V Binding Buffer before being resuspended in 70 µl Annexin V Binding Buffer and 2.5 μl Annexin V FITC-conjugate (both Miltenyi Biotec, Bergisch Gladbach, Germany) and 15 µg PI (Sigma-Aldrich, Taufkirchen, Germany) and incubated in the dark at room temperature for 15 min. 500 µl of Annexin V Binding Buffer was added before measurement. For the cell cycle analysis, cells were washed with PBS (phosphate buffered saline), fixed by ice cold 70% ethanol and stained with 2 µg/ml PI and 200 µg/ml RNaseA (Quiagen, Hilden, Germany 100 mg/ml) in PBS shortly before every measurement. At least 5 × 10^4 cells were counted and analyzed using the MACSQuant software v 2.13.0.

[3] = 2102EP cells, Mod Spec raw data

Cc1ncsc1-c1ccc(CNC(=O)[C@@H]2C[C@@H](O)CN2C(=O)[C@@H](NC(=O)COCCOCCOCCNC(=O)C[C@@H]2N=C(c3ccc(Cl)cc3)c3c(sc(C)c3C)-n3c(C)nnc32)C(C)(C)C)cc1 [MZ-1]
H3: K122UN, % of peptide pool [1, 3]: 99.9639%
H3: Q19ME1, % of peptide pool [1, 3]: 0.004515%
H3: Q19UN, % of peptide pool [1, 3]: 99.9955%
H3: Q55ME1, % of peptide pool [1, 3]: 0.1937%
H3: Q55UN, % of peptide pool [1, 3]: 99.8063%
H3: R42ME2, % of peptide pool [1, 3]: 1.387%
H3: R42UN, % of peptide pool [1, 3]: 98.6131%
H3: R49ME2, % of peptide pool [1, 3]: 3.092%
H3: R49UN, % of peptide pool [1, 3]: 96.9084%
H3R2UN: K4AC, % of peptide pool [1, 3]: 0.04633%
H3R2UN: K4ME1, % of peptide pool [1, 3]: 16.637%
H3R2UN: K4ME2, % of peptide pool [1, 3]: 0.2165%
H3R2UN: K4ME3, % of peptide pool [1, 3]: 0.04192%
H3R2UN: K4UN, % of peptide pool [1, 3]: 83.0582%
H3R2UN: Q5ME1, % of peptide pool [1, 3]: 0.08148%
H3R2UN: Q5UN, % of peptide pool [1, 3]: 99.9185%
H3.1: K27AC, % of peptide pool [1, 3]: 2.915%
H3.1: K27ME1, % of peptide pool [1, 3]: 46.4162%
H3.1: K27ME2, % of peptide pool [1, 3]: 19.546%
H3.1: K27ME3, % of peptide pool [1, 3]: 2.363%
H3.1: K27UN, % of peptide pool [1, 3]: 28.7602%
H3.1: K36AC, % of peptide pool [1, 3]: 0.09043%
H3.1: K36ME1, % of peptide pool [1, 3]: 14.1558%
H3.1: K36ME2, % of peptide pool [1, 3]: 48.8646%
H3.1: K36ME3, % of peptide pool [1, 3]: 20.4408%
H3.1: K36UN, % of peptide pool [1, 3]: 16.4484%
H3.3: K27AC, % of peptide pool [1, 3]: 6.233%
H3.3: K27M, % of peptide pool [1, 3]: 0%
H3.3: K27ME1, % of peptide pool [1, 3]: 47.8396%
H3.3: K27ME2, % of peptide pool [1, 3]: 15.5733%
H3.3: K27ME3, % of peptide pool [1, 3]: 3.5424%
H3.3: K27UN, % of peptide pool [1, 3]: 26.8119%
H3.3: K36AC, % of peptide pool [1, 3]: 1.864%
H3.3: K36ME1, % of peptide pool [1, 3]: 12.2128%
H3.3: K36ME2, % of peptide pool [1, 3]: 53.2755%
H3.3: K36ME3, % of peptide pool [1, 3]: 19.9611%
H3.3: K36UN, % of peptide pool [1, 3]: 12.6864%
H4: K5AC, % of peptide pool [1, 3]: 7.836%
H4: K5UN, % of peptide pool [1, 3]: 92.164%
H4: K8AC, % of peptide pool [1, 3]: 12.4074%
H4: K8UN, % of peptide pool [1, 3]: 87.5926%
H4: K12AC, % of peptide pool ([1]; 2102EP cells, Mod Spec raw data, histone H4 K12 acetylated): 7.206 % of peptide pool
H4: K12UN, % of peptide pool ([1]; 2102EP cells, Mod Spec raw data, histone H4 K12 unmodified): 92.7945 % of peptide pool
H4: K16AC, % of peptide pool ([1]; 2102EP cells, Mod Spec raw data, histone H4 K16 acetylated): 49.1827 % of peptide pool
H4: K16UN, % of peptide pool ([1]; 2102EP cells, Mod Spec raw data, histone H4 K16 unmodified): 50.8173 % of peptide pool
H4: K20AC, % of peptide pool ([1]; 2102EP cells, Mod Spec raw data, histone H4 K20 acetylated): 21.1654 % of peptide pool
H4: K20ME2, % of peptide pool ([1]; 2102EP cells, Mod Spec raw data, histone H4 K20 dimethylated): 54.2158 % of peptide pool
H4: K20ME1, % of peptide pool ([1]; 2102EP cells, Mod Spec raw data, histone H4 K20 monomethylated): 4.396 % of peptide pool
H4: K20ME3, % of peptide pool ([1]; 2102EP cells, Mod Spec raw data, histone H4 K20 trimethylated): 2.467 % of peptide pool
H4: K20UN, % of peptide pool ([1]; 2102EP cells, Mod Spec raw data, histone H4 K20 unmodified): 17.7556 % of peptide pool
change of histone modifications of the expected mode of action (Mod Spec) ([1]; 2102EP, EC50, 16 h, vs solvent control): increase in H3K64ac and H2A3K15ac
CREB, STAT3 and STAT5 phosphorylation and total levels of β-Catenin and HSP60 [2]: decreased
ERK1/2 phosphorylation [2]: decreased
EC50 / effective concentration in words (GCT cell lines): nanomolar range
apoptosis induction in fibroblast control cells (fibroblast control cells): only a weak apoptosis induction
